“Also recorded” adds a separate entry of the source.
Assays:
washed human platelets = assay: I-BOP evoked human platelet aggregation in vitro with washed platelets; type: cell-based; conditions: for IC50: washed human platelets, 5 ng I-BOP, compounds are methyl esters, read-out: IC50, inhibition of I-BOP evoked human platelet aggregation
Method: Washed human platelets were prepared as previously described (Pace-Asciak et al., 2002). The aggregation of platelets was carried out in a conventional 4-well aggregometer with stirring of the suspension maintained at 37° C. The platelet suspension was caused to aggregate with a thromboxane stable analog, I-BOP. The isolated enantiomer compounds and their respective racemates, PBT-3 and PBT-4, were added at various concentrations to cuvettes containing 375×10^6 platelets/ml, 1 min prior to the addition of 5 ng I-BOP (Cayman Chemicals, Ann Arbor, Mich.). Aggregation was monitored for an additional 5 min.

[1] = test system: Caspase-3 cleavage in K562 cells; assay: Caspase-3 cleavage in K562 cells, Western blot; type: cell-based, human; conditions: 10 uM, 6 h; for Cleavage of caspase-3: FIG. 7
Method: Cell culture: Human leukemia K562 cells, obtained from ATCC (American Type Culture Collection), were maintained in RPMI 1640 medium containing 100 units/ml penicillin G, 100 μg/ml streptomycin, 10% (v/v) fetal calf serum in a humidified atmosphere with 5% CO2 at 37° C. The ability of the cells to exclude trypan Blue dye was used to assess cell viability.
Cell treatment: K562 cells were stored in 0.5% FBS for 15 min before the experiment. The cells, 6×10^5, were treated with DMSO as vehicle, or with PBT-3, PBT-4, or compounds A, B, C and D at 10 uM/dish (8 ml). Gleevec™ (STI) was used at 5 μM/dish. All experiments were without FBS and treatment lasted 6 h at 37° C. Treatment was terminated by washing the cells with ice-cold PBS buffer by centrifugation at 500×g for 5 min. Cells were lysed in buffer containing 20 mM Tris-HCl buffer, pH 7.4, 150 NaCl, 1 mM EDTA, 1 mM EGTA, 1% Triton X-100 2.5 mM sodium pyrophosphate, 1 mM beta-glycerophosphate, 1 mM sodium orthovanadate, 1 mM PMSF and 1 μM leupeptin/1 μM Aprotinin/1 μM pepstain A, on ice for 30 min. The lysates were clarified by centrifugation at 15,000×g for 15 min at 4° C. Lysates were subjected to protein assay (BCA, Pierce) and kept at −80° C.
Western blot: Thirty micrograms of protein from each sample were taken, and SDS-PAGE sample loading buffer was added. The mixture was boiled for 5 min. After centrifugation, the samples were loaded onto 15% SDS-PAGE gel and the gel was run (BioRad Protein II) for 2-3 h at 20 mA. The protein was transferred to a Trans-blot Nitrocellulose membrane (Millipore). Protein bands on the membranes were checked visually with Ponceau S-staining to ensure equivalent protein load/transfer comparing different samples. Membranes were blocked with 5% non-fat dry milk in PBS containing 0.5% Tween-20 for 1 h at room temperature, and then incubated with 1:1000 dilution of anti-caspase-3 antibody (BD Transduction Laboratories, Mississauga, Canada) overnight at 4° C. Secondary antibody of horseradish peroxidase anti-mouse antibody was used at 1:2000 dilution. Bound antibodies were detected by using enhanced chemilluminescence (ECL kit, Amersham Pharmacia Biotech) and the membranes were exposed to Hyper film for ECL detection. The same membrane was stripped by placing in buffer containing 62.5 mM Tris-HCl, pH 6.8/2% SDS/100 mM beta-mercaptoethanol at 50° C. for 30 min. The membrane was washed 3 times with PBS containing 0.5% Tween-20. The membrane was blocked by PBS buffer containing 0.5% Tween-20 and 5% skim milk. The anti-tubulin antibody (Santa Cruz, Calif.) was diluted 1:1000 and membrane analyzed by ECL as described above.

[2] = biological target: T1, Ga14-DBD-PPAR gamma-LBD fusion protein (Homo sapiens, UniProt P37231); assay: PPAR gamma transactivation assay (Gal4-PPAR gamma LBD / UASx4-TK-luc reporter); type: cell-based
T1 construct: expressed in transfected cells; host or cells: mouse embryonic fibroblasts (MEFs) or ME3 cells
T1 sequence (P37231 238-503 limits assumed): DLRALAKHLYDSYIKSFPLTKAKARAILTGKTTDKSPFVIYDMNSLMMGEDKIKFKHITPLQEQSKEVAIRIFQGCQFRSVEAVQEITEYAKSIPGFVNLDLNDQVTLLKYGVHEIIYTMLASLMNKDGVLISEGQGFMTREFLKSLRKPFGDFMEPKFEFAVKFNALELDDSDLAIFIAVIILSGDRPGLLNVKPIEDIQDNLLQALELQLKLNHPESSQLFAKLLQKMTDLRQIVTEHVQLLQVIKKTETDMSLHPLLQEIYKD
Description: The UASx4-TK-luc reporter construct (where UAS refers to “upstream activator sequence”) contains four Ga14-responsive elements. The plasmid Ga14-PPAR gammaLBD encodes a Ga14-DBD-PPAR gamma-LBD fusion protein (i.e. the DNA-binding domain, DBD, of Ga14 fused to the ligand-binding domain, LBD, of PPAR gamma) capable of transactivating the UASx4-TK-luc reporter plasmid by binding to the UAS. The CMV-beta-galactosidase plasmid (where CMV is cytomegalovirus) was used for normalization of experimental values.
The cells were replated, typically in 24 well plates, so that at the time of transfection the cells were 50-70% confluent.
Briefly, per well in a 24 well plate, UASx4TKIuc (0.2 microg) Ga14-PPAR gammaLBD (or pM-hPPAR gamma-LBD; 0.1 microg) and CMV-beta-galactosidase (0.05 microg) in 30 μL DMEM (free of serum and antibiotics) was mixed with 30 microL DMEM (free of serum and antibiotics) containing 1 microL metafectenein. The mixture was incubated at room temperature for 20 min to allow formation of nucleic acid-lipid complexes and then approximately 60 micros was added to each well containing the 50-70% confluent cells. […] Cells were harvested after 12-24 hours and luciferase and beta-galactosidase activities were measured according to standard protocols.
Each experiment was carried out with triplicate samples with 0.1, 1 or 10 microM racemate or purified enantiomer.

[3] = test system: human leukemic K562 cells; assay: Inhibition of 3H-methyl thymidine incorporation (cell proliferation) in K562 cells; type: cell-based; conditions: for IC50: 6 h treatment, compounds are methyl esters
Method: The human leukemic K562 cell line was established as previously reported (Qiao et al., 2003). Cells were maintained as suspension cultures in RPMI 1640 medium supplemented with 100 1.1/ml penicillin G, 100 μg/ml streptomycin, 10% (v/v) […] in a humidified atmosphere of 5% CO2 at 37° C. Cell viability was assessed by the exclusion of Trypan blue. Incorporation of ^3H-methyl thymidine into cell DNA was used as an assay for cell proliferation. Cells ([…]) were starved for 12 h, and were subsequently treated with the test compounds. Compounds A, B, C and D were made up at various concentrations in DMSO ([…] A, B, C and D. Concentrations were doubled for racemates PBT-3 and PBT-4) and 1 of these solutions was added/ml volume of cells. Cells were suspended in RPMI 1640 medium. At 6 h post-treatment at 37° C. the cells were fixed and denatured essentially as described in Qiao et al. (2003), harvested and passed through Whatman GF/C glass filters. The filters were washed and counted for radioactivity.

CCCCC/C=C\C[C@H]1C[C@@H]1[C@H](O)/C=C\C/C=C\CCCC(=O)OC [Compound A, 10R-hydroxy-11S,12S-cyclopropyl-eicosa-5Z,8Z,14Z-trienoic acid methyl ester]
Potency relative to Compound B, inhibition of platelet aggregation (washed human platelets; I-BOP evoked aggregation): nearly four times as active; also recorded: about four times more potent | Potency relative to racemic PBT-3, inhibition of platelet aggregation (washed human platelets; I-BOP evoked aggregation): twice as potent | Potency relative to racemic PBT-3, inhibition of platelet aggregation (washed human platelets; I-BOP evoked aggregation, listed as compound A): 2 fold | IC50 (washed human platelets): 27 ± 7 nM | Cleavage of caspase-3 compared with Compound B [1]: more active than Compound B | Cleavage of caspase-3 [1]: increased cleavage of caspase-3 | PPAR gamma transactivation, result in words [2]: no apparent difference | PPAR Activation as % of positive control (Avandia) ([2]; Experiment 1, 0.1 microM): 11 +/− 4 % of positive control (Avandia) | PPAR Activation as % of positive control (Avandia) ([2]; Experiment 1, 1 microM): 14 +/− 4 % of positive control (Avandia) | PPAR Activation as % of positive control (Avandia) ([2]; Experiment 1, 10 microM): 63 +/− 34 % of positive control (Avandia) | PPAR Activation as % of positive control (Avandia) ([2]; Experiment 2, 0.1 microM): 4 +/− 1 % of positive control (Avandia) | PPAR Activation as % of positive control (Avandia) ([2]; Experiment 2, 1 microM): 11 +/− 1 % of positive control (Avandia) | PPAR Activation as % of positive control (Avandia) ([2]; Experiment 2, 10 microM): 34 +/− 1 % of positive control (Avandia) | PPAR Activation as % of positive control (Avandia) ([2]; Experiment 3, 0.1 microM): 8 +/− 2 % of positive control (Avandia) | PPAR Activation as % of positive control (Avandia) ([2]; Experiment 3, 1 microM): 12 +/− 1 % of positive control (Avandia) | PPAR Activation as % of positive control (Avandia) ([2]; Experiment 3, 10 microM): 27 +/− 5 % of positive control (Avandia) | IC50 [3]: 3600 nM

CCCCC/C=C\CC1CC1C(O)/C=C\C/C=C\CCCC(=O)OC (stereo not drawn) [Compound B, 10S-hydroxy-11R,12R-cyclopropyl-eicosa-5Z,8Z,14Z-trienoic acid methyl ester]
IC50 (washed human platelets): 101 ± 27 nM | Cleavage of caspase-3 [1]: increased cleavage of caspase-3 | PPAR gamma transactivation, result in words [2]: no apparent difference | PPAR Activation as % of positive control (Avandia) ([2]; Experiment 1, 0.1 microM): 11 +/− 3 % of positive control (Avandia) | PPAR Activation as % of positive control (Avandia) ([2]; Experiment 1, 1 microM): 21 +/− 3 % of positive control (Avandia) | PPAR Activation as % of positive control (Avandia) ([2]; Experiment 1, 10 microM): 44 +/− 11 % of positive control (Avandia) | PPAR Activation as % of positive control (Avandia) ([2]; Experiment 2, 0.1 microM): 4 +/− 1 % of positive control (Avandia) | PPAR Activation as % of positive control (Avandia) ([2]; Experiment 2, 1 microM): 10 +/− 1 % of positive control (Avandia) | PPAR Activation as % of positive control (Avandia) ([2]; Experiment 2, 10 microM): 35 +/− 11 % of positive control (Avandia) | PPAR Activation as % of positive control (Avandia) ([2]; Experiment 3, 0.1 microM): 10 +/− 3 % of positive control (Avandia) | PPAR Activation as % of positive control (Avandia) ([2]; Experiment 3, 1 microM): 16 +/− 6 % of positive control (Avandia) | PPAR Activation as % of positive control (Avandia) ([2]; Experiment 3, 10 microM): 30 +/− 10 % of positive control (Avandia) | IC50 [3]: 7600 nM

CCCCC/C=C\CC1CC1C(O)/C=C\C/C=C\CCCC(=O)OC (stereo not drawn) [Compound C, 10R-hydroxy-11R,12R-cyclopropyl-eicosa-5Z,8Z,14Z-trienoic acid methyl ester]
IC50 (washed human platelets): 60 ± 12 nM | Cleavage of caspase-3 [1]: increased cleavage of caspase-3 | PPAR Activation as % of positive control (Avandia) ([2]; Experiment 1, 0.1 microM): 14 +/− 4 % of positive control (Avandia) | PPAR Activation as % of positive control (Avandia) ([2]; Experiment 1, 1 microM): 16 +/− 3 % of positive control (Avandia) | PPAR Activation as % of positive control (Avandia) ([2]; Experiment 1, 10 microM): 38 +/− 8 % of positive control (Avandia) | PPAR Activation as % of positive control (Avandia) ([2]; Experiment 2, 0.1 microM): 4 +/− 1 % of positive control (Avandia) | PPAR Activation as % of positive control (Avandia) ([2]; Experiment 2, 1 microM): 6 +/− 1 % of positive control (Avandia) | PPAR Activation as % of positive control (Avandia) ([2]; Experiment 2, 10 microM): 14 +/− 1 % of positive control (Avandia) | PPAR Activation as % of positive control (Avandia) ([2]; Experiment 3, 0.1 microM): 9 +/− 3 % of positive control (Avandia) | PPAR Activation as % of positive control (Avandia) ([2]; Experiment 3, 1 microM): 7 +/− 1 % of positive control (Avandia) | PPAR Activation as % of positive control (Avandia) ([2]; Experiment 3, 10 microM): 17 +/− 3 % of positive control (Avandia) | Activity relative to Compound D, cell proliferation assay [3]: 1.3 fold | IC50 [3]: 4000 nM

CCCCC/C=C\CC1CC1C(O)/C=C\C/C=C\CCCC(=O)OC (stereo not drawn) [Compound D, 10S-hydroxy-11S,12S-cyclopropyl-eicosa-5Z,8Z,14Z-trienoic acid methyl ester]
IC50 (washed human platelets): 82 ± 18 nM | Cleavage of caspase-3 [1]: increased cleavage of caspase-3 | PPAR gamma transactivation, result in words [2]: more effectively than Compound C; also recorded: improved PPAR gamma transactivating activity over Compound C; also recorded: higher fold PPAR gamma transactivation than compound C | PPAR Activation as % of positive control (Avandia) ([2]; Experiment 1, 0.1 microM): 14 +/− 3 % of positive control (Avandia) | PPAR Activation as % of positive control (Avandia) ([2]; Experiment 1, 1 microM): 17 +/− 3 % of positive control (Avandia) | PPAR Activation as % of positive control (Avandia) ([2]; Experiment 1, 10 microM): 69 +/− 15 % of positive control (Avandia) | PPAR Activation as % of positive control (Avandia) ([2]; Experiment 2, 0.1 microM): 4 +/− 1 % of positive control (Avandia) | PPAR Activation as % of positive control (Avandia) ([2]; Experiment 2, 1 microM): 5 +/− 1 % of positive control (Avandia) | PPAR Activation as % of positive control (Avandia) ([2]; Experiment 2, 10 microM): 18 +/− 1 % of positive control (Avandia) | PPAR Activation as % of positive control (Avandia) ([2]; Experiment 3, 0.1 microM): 7 +/− 2 % of positive control (Avandia) | PPAR Activation as % of positive control (Avandia) ([2]; Experiment 3, 1 microM): 8 +/− 1 % of positive control (Avandia) | PPAR Activation as % of positive control (Avandia) ([2]; Experiment 3, 10 microM): 33 +/− 7 % of positive control (Avandia) | IC50 [3]: 5200 nM

From patent US8710252B2, “Hepodxilin analog enantiomers” (priority 2006, dated 2014)
